Results taken from the Kinase Knowledgebase extract (Sharma et al. 2016).

Legend:
MAPK14 (human) [1] = biological target: MAPK14 (human) (UniProt Q16539); assay: Inhibition of MAPK14 Kinase Activity
MAPK14 (human) [2] = biological target: MAPK14 (human) (UniProt Q16539); assay: Inhibition of TNF-alpha Production in LPS Stimulated PBMC
MAPK14 (human) [3] = biological target: MAPK14 (human) (UniProt Q16539); assay: Inhibition of IL-1beta Production in LPS Stimulated PBMC
MAPK14 (human) [4] = biological target: MAPK14 (human) (UniProt Q16539); assay: Inhibition of TNF-alpha Release in LPS Stimulated Whole Blood Cells
MAPK14 (human) [5] = biological target: MAPK14 (human) (UniProt Q16539); assay: Inhibition of IL-1 beta Release in LPS Stimulated Whole Blood Cells
MAPK14 (human) [6] = biological target: MAPK14 (human) (UniProt Q16539); assay: Inhibition of IL-6 Release in LPS Stimulated Whole Blood Cells

MAPK14 (human), sequence (Q16539 whole entry, looked up): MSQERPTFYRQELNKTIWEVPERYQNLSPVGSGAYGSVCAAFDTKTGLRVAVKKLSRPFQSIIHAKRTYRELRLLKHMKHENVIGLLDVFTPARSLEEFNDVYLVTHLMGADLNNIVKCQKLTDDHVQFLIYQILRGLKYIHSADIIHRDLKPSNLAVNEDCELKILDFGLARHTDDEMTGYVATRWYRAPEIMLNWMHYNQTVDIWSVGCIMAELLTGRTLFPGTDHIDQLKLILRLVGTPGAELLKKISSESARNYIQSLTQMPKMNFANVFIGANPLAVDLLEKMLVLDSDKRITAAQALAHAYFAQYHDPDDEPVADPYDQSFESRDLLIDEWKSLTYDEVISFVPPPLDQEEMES

IC50 (MAPK14 (human) [1]) [nM]	IC50 (MAPK14 (human) [2]) [nM]	IC50 (MAPK14 (human) [3]) [nM]	IC50 (MAPK14 (human) [4]) [nM]	IC50 (MAPK14 (human) [5]) [nM]	IC50 (MAPK14 (human) [6]) [nM]	SMILES
31	22	12	55	140	83	CC(C)[C@H](N)C(=O)OCCNC(=O)OCc1ccc(N(C(N)=O)c2c(F)cccc2F)nc1-c1ccc(F)cc1F
5000	–	–	4300	2200	800	CN(C)C=NC(=O)OCc1ccc(N(C(=O)N=CN(C)C)c2c(F)cccc2F)nc1-c1ccc(F)cc1F
1000	50	50	20000	12200	11000	CN(C)C=NC(=O)OCc1ccc(N(C(N)=O)c2c(F)cccc2F)nc1-c1ccc(F)cc1F
